Experimental data published in patent publication US8765713B2, “Method for determination of sensitivity to anti-cancer agent” (Keio University, priority 2009, dated 2014).

What was measured:
HCT116 cells [1] = assay: Intracellular protein level after drug exposure by SELDI-TOF MS, HCT116; format: cell-based, human; details: 4 to 48 hours
Procedure: (§1) Based on the results of (c) above, the drug concentration employed in the exposure test was determined. The 5-FU+L-OHP combination concentration was adjusted to the following four levels: 2 μ[…], and 100 μM+10 μM, the 5-FU concentration (exposure to single agent) was adjusted to 2 μM and 100 μM, and the L-OHP concentration (exposure to single agent) was adjusted to 1 μM and 10 μM. In addition, the exposure test was conducted at a drug-free concentration (control). That is, nine concentrations in total were employed. Drug exposure time was adjusted to the following five periods of time: 0 hour (just before exposure), 4 hours, 12 hours, 24 hours, and 48 hours. After completion of exposure, cell count was performed, and intracellular proteins were extracted. The medium was removed from the dish and washed thrice with ice-cooled PBS. The cells on the dish was collected by scraping with a rubber policeman. The thus-obtained cell suspension was transferred to a 1.5-mL microtube. The cell suspension was centrifuged at 4° C. and 1,200×g for 10 minutes, and the cells were recovered. After removal of the supernatant, a cell lysis buffer (9 mol/L urea, 2% CHAPS, 1 mM DTT, protease-inhibitor cocktail (Sigma)) was added in a volume of 200 μL with respect to 10,000,000 cells. The liquid was subjected to untrasonic treatment under cooling with ice. The thus-treated product was centrifuged at 4° C. and 16,000×g for 20 minutes, and the supernatant was quickly frozen with liquid nitrogen. The frozen product was stored at -80° C. before analysis. An aliquot of the supernatant was subjected to protein quantification (DC Protein Assay Kit, Bio-Rad). The protein sample was mixed with a cell lysis buffer (excluding protease inhibitor), to thereby adjust the protein concentration to 2.5 mg/mL. The liquid was further mixed with a dilution/washing buffer (pH: 4.5, 50 mM sodium acetate buffer) (hereinafter referred to simply as “buffer”), to a protein concentration of 0.5 mg/mL. The thus-prepared sample (100 μL) was applied to spots of a cation-exchange ProteinChip array (CM10, Bio-Rad) which had been conditioned in advance with the same buffer. Incubation was performed for one hour for reaction, and the chip array was washed thrice with the buffer and rinsed twice with milliQ water, followed by drying in air. Energy absorbing molecule (EAM: saturated solution of sinapinic acid in 50% ACN/0.5% TFA) (1.0 μL ([…])) was added to each spot. After the surface of the spot was dried, analysis of the ProteinChip array was performed. […] As an analyzer, ProteinChipTM Reader (Model PCS4000 Personal Edition, Bio-Rad) was used and the analysis was performed under the following conditions: mass range of 0 to 70,000 Da, focus mass of 8,000 Da, energy of 3,000 or 4,000 nJ, and 265 shots/sample. […]

DLD-1 cells [2] = assay: Intracellular protein level after drug exposure by SELDI-TOF MS, DLD-1; format: cell-based, human; details: DLD-1, SELDI-TOF MS, 4 to 48 hours
Procedure: as §1

DLD-1 cells [3] = assay: MTS assay cell viability after drug exposure, DLD-1
Procedure: (§2) Two human colorectal cancer cell lines (HCT116 and DLD-1) were obtained from ECACC. Cell culturing was performed by means of a φ000 mm/Tissue Culture Dish (IWAKI) with a medium (D-MEM, 2 mM glutamine, 10% fetal bovine serum) at 37° C. under 5% CO2.
(§3) Two colorectal cancer cell lines (HCT116 and DLD-1) were exposed to a drug, and 24 hours and 48 hours after drug exposure, cell viability was determined by means of an MTS assay (CellTiter96™AQueous One Solution Cell Proliferation Assay, Promega). Drug exposure conditions were as follows. 5-FU (single agent) was used at the following 11 concentrations: control (0 μM), 0.001 μM, 0.01 μM, 0.1 μM, 1 μM, 3 μM, 10 μM, 30 μM, 100 μM, 1,000 μM, and 10,000 μM. L-OHP (single agent) was used at the following 11 concentrations; control (0 μM), 0.001 μM, 0.01 μM, 0.1 μM, 0.3 μM, 1 μM, 3 μM, 10 μM, 30 μM, 100 μM, and 1,000 μM. […]
(§4) Sensitivity analysis was performed from viability data calculated from MTS assay results. The presence or absence of combined effect was determined through comparison of viability obtained by exposure to a combination with that obtained by exposure to a single agent at the same concentration as employed at the exposure to the combination.

HCT116 cells [4] = assay: MTS assay cell viability after drug exposure, HCT116
Procedure: as §2, §3, §4

Structure (SMILES)	levels of proteins A to C, F, and H to K after exposure (HCT116 cells [1])	levels of proteins D and M after exposure (HCT116 cells [1])	levels of proteins A to C, F, and H to K after exposure (DLD-1 cells [2])	levels of proteins D and M after exposure (DLD-1 cells [2])	viability at 100 µM (DLD-1 cells [3]; Homo sapiens, DLD-1, 48 h, read-out: cell viability)	viability at 100 µM (HCT116 cells [4]; Homo sapiens, HCT-116, 48 h, read-out: cell viability)	levels of proteins A to C and G to K after exposure (HCT116 cells [1])	levels of proteins A to C and G to K after exposure (DLD-1 cells [2])	cell viability (DLD-1 cells [3]; DLD-1, 1 μM L-OHP, 48 hours)	cell viability (HCT116 cells [4]; HCT116, 1 μM L-OHP, 48 hours)
O=c1[nH]cc(F)c(=O)[nH]1 [5-FU, Fluorouracil]	no significant difference	decrease	increase	no significant difference	~49%	~24%				
O=C1[O][Pt]2([NH][C@@H]3CCCC[C@H]3[NH]2)[O]C1=O [L-OHP, (SP-4-2)-[(1R,2R)-cyclohexane-1,2-diamine-κN,κN′][ethanedioato(2-)-κO^1,κO^2]platinum]		decrease		no significant difference			no significant difference	increase	about 82%	about 37%
